Data on 24 compounds can be found in patent publication US10201546B2, “Quinolinyl modulators of RORγt” (Janssen Pharmaceutica NV, priority 2013, dated 2019).

The term inhibition denotes the drop in the measured response relative to a control, in per cent.

This experiment has as its target human RORγt LBD fused to the DNA binding domain of the GAL4 protein (Homo sapiens (Human), UniProt P51449). Kind of experiment: RORγt (LBD) reporter assay in HEK293T cells. The experiment is classed as cell-based. The note with it: for inhibition at 6 µM: HEK-293T, read-out: RORγt (LBD) Reporter Assay, % inhibition @ 6 μM, @ 6 μM.

human RORγt LBD fused to the DNA binding domain of the GAL4 protein, sequence (P51449 258-518): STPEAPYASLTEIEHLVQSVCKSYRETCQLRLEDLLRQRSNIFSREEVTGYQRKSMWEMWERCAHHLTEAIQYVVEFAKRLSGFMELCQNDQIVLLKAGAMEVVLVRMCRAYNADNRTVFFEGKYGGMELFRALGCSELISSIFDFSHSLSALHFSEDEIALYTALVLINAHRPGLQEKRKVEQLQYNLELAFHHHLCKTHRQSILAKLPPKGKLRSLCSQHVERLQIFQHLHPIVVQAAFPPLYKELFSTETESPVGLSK

With `COc1nc2ccc(C(O)(c3ccc(C)nc3C)c3cnnn3C)cc2c(Cl)c1CC1CCC(F)(F)CC1` (single isomer, unassigned) [Example 1b, (4-Chloro-3-((4,4-difluorocyclohexyl)methyl)-2-methoxyquinolin-6-yl)(2,6-dimethylpyridin-3-yl)(1-methyl-1H-1,2,3-triazol-5-yl)methanol], the inhibition at 6 µM came out at 78%.
In the case of `COc1nc2ccc(C(O)(c3ccc(C)nc3C)c3cnnn3C)cc2c(Cl)c1CC1CCC(F)(F)CC1` (single isomer, unassigned) [Example 1c, (4-Chloro-3-((4,4-difluorocyclohexyl)methyl)-2-methoxyquinolin-6-yl)(2,6-dimethylpyridin-3-yl)(1-methyl-1H-1,2,3-triazol-5-yl)methanol], the “RORγt (LBD) Reporter Assay, % inhibition @ 6 μM” value (“RORγt … % inhibition @ 6 μM” for short) came to 66%.
For the compound `COc1nc2ccc(C(O)(c3cncn3C)C3CCN(C(C)=O)CC3)cc2c(Cl)c1CC1CCOCC1` (single isomer, unassigned) [Example 5b, 1-(4-((4-Chloro-2-methoxy-3-((tetrahydro-2H-pyran-4-yl)methyl)quinolin-6-yl)(hydroxy)(1-methyl-1H-imidazol-5-yl)methyl)piperidin-1-yl)ethanone], the inhibition at 6 µM is 33%.
As for `COc1nc2ccc(C(O)(c3cncn3C)C3CCN(C(C)=O)CC3)cc2c(Cl)c1CC1CCOCC1` (single isomer, unassigned) [Example 5c, 1-(4-((4-Chloro-2-methoxy-3-((tetrahydro-2H-pyran-4-yl)methyl)quinolin-6-yl)(hydroxy)(1-methyl-1H-imidazol-5-yl)methyl)piperidin-1-yl)ethanone], the “RORγt … % inhibition @ 6 μM” value is on record as 36%.
On the same count and under the same terms, the same measure for `COc1nc2ccc(C(O)(c3ccc(C)nc3C)c3cnnn3C)cc2c(Cl)c1C` (single isomer, unassigned) [Example 12b, (4-Chloro-2-methoxy-3-methylquinolin-6-yl)(2,6-dimethylpyridin-3-yl)(1-methyl-1H-1,2,3-triazol-5-yl)methanol]: 23%.
With `COc1nc2ccc(C(O)(c3ccc(C)nc3C)c3cnnn3C)cc2c(Cl)c1C` (single isomer, unassigned) [Example 12c, (4-Chloro-2-methoxy-3-methylquinolin-6-yl)(2,6-dimethylpyridin-3-yl)(1-methyl-1H-1,2,3-triazol-5-yl)methanol], the “RORγt … % inhibition @ 6 μM” value turned out to be 93%.
The same measure, in the same setting: to `COc1nc2ccc(C(O)(c3ccc(C)nc3C)c3cnnn3C)cc2c(Cl)c1CC1CC1` (single isomer, unassigned) [Example 14b, (4-Chloro-3-(cyclopropylmethyl)-2-methoxyquinolin-6-yl)(2,6-dimethylpyridin-3-yl)(1-methyl-1H-1,2,3-triazol-5-yl)methanol] belongs 72%; to `COc1nc2ccc(C(O)(c3ccc(C)nc3C)c3cnnn3C)cc2c(Cl)c1CC1CC1` (single isomer, unassigned) [Example 14c, (4-Chloro-3-(cyclopropylmethyl)-2-methoxyquinolin-6-yl)(2,6-dimethylpyridin-3-yl)(1-methyl-1H-1,2,3-triazol-5-yl)methanol], 98%.
In the case of `COc1nc2ccc(C(O)(c3ccc(C)nc3C)c3cnnn3C)cc2c(Cl)c1OC1CCN(C)CC1` (single isomer, unassigned) [Example 65b, {4-Chloro-2-methoxy-3-[(1-methylpiperidin-4-yl)oxy]quinolin-6-yl}(2,6-dimethylpyridin-3-yl)(1-methyl-1H-1,2,3-triazol-5-yl)methanol], the inhibition at 6 µM is 39%.
Still for that read-out and setting: to `COc1nc2ccc(C(O)(c3ccc(C)nc3C)c3cnnn3C)cc2c(Cl)c1OCc1ncccn1` (single isomer, unassigned) [Example 66b, [4-Chloro-2-methoxy-3-(pyrimidin-2-ylmethoxy)quinolin-6-yl](2,6-dimethylpyridin-3-yl)(1-methyl-1H-1,2,3-triazol-5-yl)methanol] belongs -129%.
On to `COc1nc2ccc(C(O)(c3ccc(C)nc3C)c3cnnn3C)cc2c(Cl)c1OCC1CC1` (single isomer, unassigned) [Example 68b, [4-Chloro-3-(cyclopropylmethoxy)-2-methoxyquinolin-6-yl](2,6-dimethylpyridin-3-yl)(1-methyl-1H-1,2,3-triazol-5-yl)methanol], for which the “RORγt … % inhibition @ 6 μM” value amounted to 54%.
Regarding `COc1nc2ccc(C(O)(c3ccc(C)nc3C)c3cnnn3C)cc2c(Cl)c1OCC1CC1` (single isomer, unassigned) [Example 68c, [4-Chloro-3-(cyclopropylmethoxy)-2-methoxyquinolin-6-yl](2,6-dimethylpyridin-3-yl)(1-methyl-1H-1,2,3-triazol-5-yl)methanol], the “RORγt … % inhibition @ 6 μM” value is listed as 87%.
The same measure, in the same setting: the same measure for `COc1nc2ccc(C(O)(c3ccc(C)nc3C)c3cnnn3C)cc2c(Cl)c1OC1CCOCC1` (single isomer, unassigned) [Example 69b, [4-Chloro-2-methoxy-3-(tetrahydro-2H-pyran-4-yloxy)quinolin-6-yl](2,6-dimethylpyridin-3-yl)(1-methyl-1H-1,2,3-triazol-5-yl)methanol]: 37%; for `COc1nc2ccc(C(O)(c3ccc(C)nc3C)c3cnnn3C)cc2c(Cl)c1OC1CCOCC1` (single isomer, unassigned) [Example 69c, [4-Chloro-2-methoxy-3-(tetrahydro-2H-pyran-4-yloxy)quinolin-6-yl](2,6-dimethylpyridin-3-yl)(1-methyl-1H-1,2,3-triazol-5-yl)methanol]: 61%; for `COc1nc2ccc(C(O)(c3ccc(C)nc3C)c3cnnn3C)cc2c(Cl)c1OCC1CC1(F)F` (single isomer, unassigned) [Example 72b, {4-Chloro-3-[(2,2-difluorocyclopropyl)methoxy]-2-methoxyquinolin-6-yl}(2,6-dimethylpyridin-3-yl)(1-methyl-1H-1,2,3-triazol-5-yl)methanol]: 53%.
Still for that read-out and setting: the same measure for `COc1nc2ccc(C(O)(c3ccc(C)nc3C)c3cnnn3C)cc2c(Cl)c1OCC1CC1(F)F` (single isomer, unassigned) [Example 72c, {4-Chloro-3-[(2,2-difluorocyclopropyl)methoxy]-2-methoxyquinolin-6-yl}(2,6-dimethylpyridin-3-yl)(1-methyl-1H-1,2,3-triazol-5-yl)methanol]: 86%.
Still for that read-out and setting: to `COc1nc2ccc(C(O)(c3ccc(C)nc3C)c3cnnn3C)cc2c(Cl)c1OCc1nccs1` (single isomer, unassigned) [Example 73b, [4-Chloro-2-methoxy-3-(1,3-thiazol-2-ylmethoxy)quinolin-6-yl](2,6-dimethylpyridin-3-yl)(1-methyl-1H-1,2,3-triazol-5-yl)methanol] belongs −15%; to `COc1nc2ccc(C(O)(c3ccc(C)nc3C)c3cnnn3C)cc2c(Cl)c1OCc1nccs1` (single isomer, unassigned) [Example 73c, [4-Chloro-2-methoxy-3-(1,3-thiazol-2-ylmethoxy)quinolin-6-yl](2,6-dimethylpyridin-3-yl)(1-methyl-1H-1,2,3-triazol-5-yl)methanol], −80%.
In the case of `COCCOc1c(OC)nc2ccc(C(O)(c3ccc(C(F)(F)F)nc3)c3cncn3C)cc2c1Cl` (single isomer, unassigned) [Example 79b, [4-Chloro-2-methoxy-3-(2-methoxyethoxy)quinolin-6-yl](1-methyl-1H-imidazol-5-yl)[6-(trifluoromethyl)pyridin-3-yl]methanol], the “RORγt … % inhibition @ 6 μM” value stood at 30%.
On the same count and under the same terms, to `COCCOc1c(OC)nc2ccc(C(O)(c3ccc(C(F)(F)F)nc3)c3cncn3C)cc2c1Cl` (single isomer, unassigned) [Example 79c, [4-Chloro-2-methoxy-3-(2-methoxyethoxy)quinolin-6-yl](1-methyl-1H-imidazol-5-yl)[6-(trifluoromethyl)pyridin-3-yl]methanol] belongs −2.5%.
For the compound `COc1nc2ccc(C(O)(c3ccnc(C(F)(F)F)c3)c3cncn3C)cc2c(Cl)c1CN1CCC(C(F)(F)F)CC1` (single isomer, unassigned) [Example 100b, (4-Chloro-2-methoxy-3-((4-(trifluoromethyl)piperidin-1-yl)methyl)quinolin-6-yl)(1-methyl-1H-imidazol-5-yl)(2-(trifluoromethyl)pyridin-4-yl)methanol], the inhibition at 6 µM was found to be 90%.
The same measure, in the same setting: to `COc1nc2ccc(C(O)(c3ccc(C)nc3C)c3cnnn3C)cc2c(Cl)c1CN1CCC(C(F)(F)F)CC1` (single isomer, unassigned) [Example 103b, (4-Chloro-2-methoxy-3-((4-(trifluoromethyl)piperidin-1-yl)methyl)quinolin-6-yl)(2,6-dimethylpyridin-3-yl)(1-methyl-1H-1,2,3-triazol-5-yl)methanol] belongs 90%.
In the case of `COc1nc2ccc(C(O)(c3ccc(C)nc3C)c3cnnn3C)cc2c(Cl)c1CN1CCC(C(F)(F)F)CC1` (single isomer, unassigned) [Example 103c, (4-Chloro-2-methoxy-3-((4-(trifluoromethyl)piperidin-1-yl)methyl)quinolin-6-yl)(2,6-dimethylpyridin-3-yl)(1-methyl-1H-1,2,3-triazol-5-yl)methanol], the “RORγt … % inhibition @ 6 μM” value is on record as 99%.
Same read-out and setting: the same measure for `COc1nc2ccc(C(O)(c3ccc(C)nc3C)c3cnnn3C)cc2c(Cl)c1CN1CCC(n2cccn2)CC1` (single isomer, unassigned) [Example 105b, (3-((4-(1H-Pyrazol-1-yl)piperidin-1-yl)methyl)-4-chloro-2-methoxyquinolin-6-yl)(2,6-dimethylpyridin-3-yl)(1-methyl-1H-1,2,3-triazol-5-yl)methanol]: 33%.
